The values that follow are results of earlier work, collected in patent US20230305023A1, “METHODS OF TREATMENT AND DIAGNOSTIC OF PATHOLOGICAL CONDITIONS ASSOCIATED WITH INTENSE STRESS” (INSERM (INSTITUT NATIONAL DE LA SANTÉ ET DE LA RECHERCHE …, priority 2020, published 2023).

Series [1] concerns plasminogen activator inhibitor type 1 (PAI-1). To be noted: in vivo; cited from earlier work.
The target of another series is T1, mouse PAI-1 (Mus musculus, UniProt P22777).
T1 sequence (P22777 23-402): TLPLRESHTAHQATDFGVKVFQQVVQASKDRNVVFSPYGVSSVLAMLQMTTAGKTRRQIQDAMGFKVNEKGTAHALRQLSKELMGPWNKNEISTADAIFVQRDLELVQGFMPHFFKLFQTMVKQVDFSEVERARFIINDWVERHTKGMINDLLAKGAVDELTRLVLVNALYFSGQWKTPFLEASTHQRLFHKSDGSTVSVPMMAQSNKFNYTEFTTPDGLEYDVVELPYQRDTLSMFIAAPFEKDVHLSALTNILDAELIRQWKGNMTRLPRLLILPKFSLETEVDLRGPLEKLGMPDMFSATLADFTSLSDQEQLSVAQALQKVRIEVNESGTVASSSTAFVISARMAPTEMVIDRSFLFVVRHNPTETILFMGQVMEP
To be noted: cited from earlier work.

In another series the target is T2, rat PAI-1 (Rattus norvegicus, UniProt P20961).
T2 sequence (P20961 24-402): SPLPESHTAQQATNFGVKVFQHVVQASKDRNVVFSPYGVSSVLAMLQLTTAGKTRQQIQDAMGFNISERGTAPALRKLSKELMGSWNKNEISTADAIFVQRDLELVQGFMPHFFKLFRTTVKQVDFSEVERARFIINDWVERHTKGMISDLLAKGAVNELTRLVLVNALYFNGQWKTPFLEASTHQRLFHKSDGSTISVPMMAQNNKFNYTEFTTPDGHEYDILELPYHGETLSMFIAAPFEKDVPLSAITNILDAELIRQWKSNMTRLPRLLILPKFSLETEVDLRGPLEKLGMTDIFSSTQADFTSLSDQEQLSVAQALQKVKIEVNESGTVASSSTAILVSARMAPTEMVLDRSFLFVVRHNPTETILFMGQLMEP
To be noted: cited from earlier work.

The subject of series [2] is rat. The settings on record: cited from earlier work.
Series [3] relates to rat. The settings on record: in vivo; cited from earlier work.

Take Defibrotide: the “circulating levels of plasminogen activator inhibitor type 1 (PAI-1)” value in series [1] is listed as “reduces”.

`O=C1S/C(=C\c2cc(O)c(O)c(O)c2)C(=O)N1Cc1ccc(Cl)c(Cl)c1` [IMD-1622, 3-(3,4-dichlorobenzyl)-5-(3,4,5-trihydroxy-benzylidene)-thiazolidine-2,4-dione]: the “activity of mouse PAI-1” value on mouse PAI-1 was “inhibit”. The “activity of rat PAI-1” value on rat PAI-1 is on record as “inhibit”. In addition, the thrombus weight entry in the series on rat [2] (compared to control) was “decreased”. Also, the intimal thickening entry in the series on rat [2] (rat, in vivo) is listed as “suppressed”. The rat autoimmune myocarditis entry in the series on rat [3] is listed as “suppresses”.
